Publication PMC5218480 (PLoS ONE, 2017)

Test system: MV-4-11 cells
Assay: Gene expression microarray analysis (Affymetrix PrimeView) and GSEA
Assay type: cell-based, human
Set-up: RFU PODN (11730768_x_at) / Fold change /veh PODN (11730768_x_at) / RFU LINC00158 (11744669_a_at) / Fold change /veh LINC00158 (11744669_a_at) / RFU DUSP10 (11751237_a_at) / Fold change /veh DUSP10 (11751237_a_at) / RFU ID3 (11757404_x_at) / Fold change /veh ID3 (11757404_x_at) / RFU PLEKHG5 (11737974_s_at) / Fold change /veh PLEKHG5 (11737974_s_at) / RFU LRRC4B (11730491_at) / Fold change /veh LRRC4B (11730491_at) / RFU GIMAP4 (11747438_a_at) / Fold change /veh GIMAP4 (11747438_a_at) / RFU KRT8 (11758183_x_at) / Fold change /veh KRT8 (11758183_x_at) / RFU CNN1 (11734310_a_at) / Fold change /veh CNN1 (11734310_a_at) / RFU VPS37D (11726825_at) / Fold change /veh VPS37D (11726825_at) / RFU C10orf10 (11716522_x_at) / Fold change /veh C10orf10 (11716522_x_at) / RFU KIR2DL2 /// KIR2DL4 /// KIR2DL5A /// KIR2DL5B /// KIR2DS1 /// KIR2DS2 /// KIR2DS3 /// KIR2DS4 /// KIR3DL3 /// KIR3DL3 /// KIR3DS1 (11738374_at) / Fold change /veh KIR2DL2 /// KIR2DL4 /// KIR2DL5A /// KIR2DL5B /// KIR2DS1 /// KIR2DS2 /// KIR2DS3 /// KIR2DS4 /// KIR3DL3 /// KIR3DL3 /// KIR3DS1 (11738374_at) / RFU C1QL1 (11718748_at) / Fold change /veh C1QL1 (11718748_at) / RFU TMPRSS4 (11747572_a_at) / Fold change /veh TMPRSS4 (11747572_a_at) / RFU HAMP (11756126_x_at) / Fold change /veh HAMP (11756126_x_at) / RFU RNFT2 (11725882_a_at) / Fold change /veh RNFT2 (11725882_a_at) / RFU NR4A2 (11747474_a_at) / Fold change /veh NR4A2 (11747474_a_at) / RFU ABCC12 (11746883_a_at) / Fold change /veh ABCC12 (11746883_a_at) / RFU TMEM136 (11760407_x_at) / Fold change /veh TMEM136 (11760407_x_at) / RFU CLDN22 /// WWC2 (11732394_at) / Fold change /veh CLDN22 /// WWC2 (11732394_at) / RFU HLA-DPB1 (11760878_x_at) / Fold change /veh HLA-DPB1 (11760878_x_at) / RFU SPINT1 (11716480_a_at) / Fold change /veh SPINT1 (11716480_a_at) / RFU GAP43 (11754022_s_at) / Fold change /veh GAP43 (11754022_s_at) / RFU A4GNT (11735810_at) / Fold change /veh A4GNT (11735810_at) / RFU PRB3 (11715151_x_at) / Fold change /veh PRB3 (11715151_x_at) / RFU TUBB4B (11761932_at) / Fold change /veh TUBB4B (11761932_at) / RFU CAPN14 (11732068_a_at) / Fold change /veh CAPN14 (11732068_a_at) / RFU TMCC2 (11721928_a_at) / Fold change /veh TMCC2 (11721928_a_at) / RFU IRGQ (11745062_a_at) / Fold change /veh IRGQ (11745062_a_at) / RFU FAM174B (11720279_a_at) / Fold change /veh FAM174B (11720279_a_at) / RFU TMPRSS4 (11748680_a_at) / Fold change /veh TMPRSS4 (11748680_a_at) / RFU FAM212B (11763350_a_at) / Fold change /veh FAM212B (11763350_a_at) / RFU PLEKHG5 (11743358_a_at) / Fold change /veh PLEKHG5 (11743358_a_at) / RFU ZSCAN30 (11745921_a_at) / Fold change /veh ZSCAN30 (11745921_a_at) / RFU CMKLR1 (11741424_a_at) / Fold change /veh CMKLR1 (11741424_a_at) / RFU LOC101060620 /// MAPK8IP1 (11723275_at) / Fold change /veh LOC101060620 /// MAPK8IP1 (11723275_at) / RFU SPTSSB (11747773_x_at) / Fold change /veh SPTSSB (11747773_x_at) / RFU PRSS12 (11739890_at) / Fold change /veh PRSS12 (11739890_at) / RFU BIN1 (11741810_x_at) / Fold change /veh BIN1 (11741810_x_at) / RFU WNT11 (11732464_a_at) / Fold change /veh WNT11 (11732464_a_at) / RFU C10orf10 (11716521_a_at) / Fold change /veh C10orf10 (11716521_a_at) / RFU C5orf56 (11738089_at) / Fold change /veh C5orf56 (11738089_at) / RFU CYB561 (11721691_x_at) / Fold change /veh CYB561 (11721691_x_at) / RFU ANKRD19P (11752326_a_at) / Fold change /veh ANKRD19P (11752326_a_at) / RFU OR2T12 /// OR2T33 /// OR2T8 (11738714_s_at) / Fold change /veh OR2T12 /// OR2T33 /// OR2T8 (11738714_s_at) / RFU VCAN (11748164_a_at) / Fold change /veh VCAN (11748164_a_at) / RFU JSRP1 (11732532_at) / Fold change /veh JSRP1 (11732532_at) / RFU KRTAP10-11 (11738290_x_at) / Fold change /veh KRTAP10-11 (11738290_x_at) / RFU MYO3A (11730013_a_at) / Fold change /veh MYO3A (11730013_a_at) / RFU EBF3 (11725865_a_at) / Fold change /veh EBF3 (11725865_a_at) / RFU CAMK2N1 (11719241_x_at) / Fold change /veh CAMK2N1 (11719241_x_at) / RFU C5orf56 (11738088_a_at) / Fold change /veh C5orf56 (11738088_a_at) / RFU OLFML3 (11715873_a_at) / Fold change /veh OLFML3 (11715873_a_at) / RFU LOC100653217 /// NTM (11731650_a_at) / Fold change /veh LOC100653217 /// NTM (11731650_a_at) / RFU MAPK11 (11762145_a_at) / Fold change /veh MAPK11 (11762145_a_at) / RFU FIZ1 (11724087_x_at) / Fold change /veh FIZ1 (11724087_x_at) / RFU OASL (11726364_x_at) / Fold change /veh OASL (11726364_x_at) / RFU SOX15 (11748057_x_at) / Fold change /veh SOX15 (11748057_x_at) / RFU CD79A (11719716_a_at) / Fold change /veh CD79A (11719716_a_at) / RFU HIST1H1D (11736915_at) / Fold change /veh HIST1H1D (11736915_at) / RFU CASKIN2 (11723855_a_at) / Fold change /veh CASKIN2 (11723855_a_at) / RFU LOC730098 (11760151_x_at) / Fold change /veh LOC730098 (11760151_x_at) / RFU OR4N2 (11742367_at) / Fold change /veh OR4N2 (11742367_at) / RFU PRRT2 (11749266_a_at) / Fold change /veh PRRT2 (11749266_a_at) / RFU SNX32 (11753110_a_at) / Fold change /veh SNX32 (11753110_a_at) / RFU CDHR5 (11726645_a_at) / Fold change /veh CDHR5 (11726645_a_at) / RFU RCAN1 (11760418_a_at) / Fold change /veh RCAN1 (11760418_a_at) / RFU FAM167A (11723789_a_at) / Fold change /veh FAM167A (11723789_a_at) / RFU FAM26E (11764081_at) / Fold change /veh FAM26E (11764081_at) / RFU ISYNA1 (11749810_s_at) / Fold change /veh ISYNA1 (11749810_s_at) / RFU ACY1 (11761880_at) / Fold change /veh ACY1 (11761880_at) / RFU 11764098_at / Fold change /veh 11764098_at / RFU SAMD14 (11745864_x_at) / Fold change /veh SAMD14 (11745864_x_at) / RFU NPB (11741838_a_at) / Fold change /veh NPB (11741838_a_at) / RFU TMPRSS6 (11731388_a_at) / Fold change /veh TMPRSS6 (11731388_a_at) / RFU KRTAP10-2 (11738614_at) / Fold change /veh KRTAP10-2 (11738614_at) / RFU ARHGAP8 /// PRR5-ARHGAP8 (11727945_x_at) / Fold change /veh ARHGAP8 /// PRR5-ARHGAP8 (11727945_x_at) / RFU KRTAP5-7 /// NADSYN1 (11734609_at) / Fold change /veh KRTAP5-7 /// NADSYN1 (11734609_at) / RFU RASL12 (11751679_a_at) / Fold change /veh RASL12 (11751679_a_at) / RFU CDKN2B (11736163_a_at) / Fold change /veh CDKN2B (11736163_a_at) / RFU PRF1 (11729649_at) / Fold change /veh PRF1 (11729649_at) / RFU, ZNF638 /// ZNF638-IT1 / Fold change vs veh, ZNF638 /// ZNF638-IT1 / RFU, PANK3 / Fold change vs veh, PANK3 / RFU, SH3YL1 / Fold change vs veh, SH3YL1 / RFU, ZEB2 / Fold change vs veh, ZEB2 / RFU, NRIP1 / Fold change vs veh, NRIP1 / RFU, PTTG1IP / Fold change vs veh, PTTG1IP / RFU, CAPN2 / Fold change vs veh, CAPN2 / RFU, MED14 / Fold change vs veh, MED14 / RFU, SNORA58 / Fold change vs veh, SNORA58 / RFU, C1orf63 / Fold change vs veh, C1orf63 / RFU, LRRFIP1 / Fold change vs veh, LRRFIP1 / RFU, NDUFAF7 / Fold change vs veh, NDUFAF7 / RFU, SLC12A2 / Fold change vs veh, SLC12A2 / RFU, IBTK / Fold change vs veh, IBTK / RFU, ESF1 / Fold change vs veh, ESF1 / Fold change vs veh, TMEM50B / RFU, TAOK1 / Fold change vs veh, TAOK1 / RFU, ACBD3 / Fold change vs veh, ACBD3 / RFU, TMA16 / Fold change vs veh, TMA16 / RFU, RWDD3 / Fold change vs veh, RWDD3 / RFU, BCAT1 / Fold change vs veh, BCAT1 / RFU, EDEM3 / Fold change vs veh, EDEM3 / RFU, TMEM33 / Fold change vs veh, TMEM33 / RFU, WDR75 / Fold change vs veh, WDR75 / RFU, AHCTF1 / Fold change vs veh, AHCTF1 / RFU, TFRC / Fold change vs veh, TFRC / RFU, ZDHHC17 / Fold change vs veh, ZDHHC17 / RFU, NOM1 / Fold change vs veh, NOM1 / RFU, ARL8B / Fold change vs veh, ARL8B / RFU, ZBTB11 / Fold change vs veh, ZBTB11 / RFU, TAMM41 / Fold change vs veh, TAMM41 / RFU, KIAA1704 /// LOC100996395 / Fold change vs veh, KIAA1704 /// LOC100996395 / RFU, ING1 / Fold change vs veh, ING1 / RFU, TRMT61B / Fold change vs veh, TRMT61B / RFU, FUBP3 / Fold change vs veh, FUBP3 / RFU, TP53 / Fold change vs veh, TP53 / RFU, TNKS2 / Fold change vs veh, TNKS2 / RFU, ZFP14 / Fold change vs veh, ZFP14 / RFU, ACTR2 / Fold change vs veh, ACTR2 / RFU, PPP3R1 / Fold change vs veh, PPP3R1 / RFU, PIK3R1 / Fold change vs veh, PIK3R1 / RFU, HNRNPA1 / Fold change vs veh, HNRNPA1 / RFU, RNF170 / Fold change vs veh, RNF170 / RFU, ZNF28 / Fold change vs veh, ZNF28 / RFU, RNGTT / Fold change vs veh, RNGTT / RFU, OGT / Fold change vs veh, OGT / RFU, BRD1 / Fold change vs veh, BRD1 / RFU, MARS / Fold change vs veh, MARS / RFU, ZNF655 / Fold change vs veh, ZNF655 / RFU, FAHD1 / Fold change vs veh, FAHD1 / RFU, BDP1 / Fold change vs veh, BDP1 / RFU, LRRCC1 / Fold change vs veh, LRRCC1 / RFU, ARID1A / Fold change vs veh, ARID1A / RFU, ZNF146 / Fold change vs veh, ZNF146 / RFU, ZNF330 / Fold change vs veh, ZNF330 / RFU, GPN3 / Fold change vs veh, GPN3 / RFU, C9orf123 / Fold change vs veh, C9orf123 / RFU, N4BP2L2 / Fold change vs veh, N4BP2L2 / RFU, ARFIP1 / Fold change vs veh, ARFIP1 / RFU, FAM179B / Fold change vs veh, FAM179B / RFU, BCL10 / Fold change vs veh, BCL10 / RFU, UHRF1BP1L / Fold change vs veh, UHRF1BP1L / RFU, BET1 / Fold change vs veh, BET1 / RFU, CNOT2 / Fold change vs veh, CNOT2 / RFU, ZNF268 / Fold change vs veh, ZNF268 / Fold change vs veh, ZNF507 / RFU, DGCR2 / Fold change vs veh, DGCR2 / RFU, WDSUB1 / Fold change vs veh, WDSUB1 / Fold change vs veh, HSP90B1 /// MIR3652 / RFU, ADSS / Fold change vs veh, ADSS / RFU, GK / Fold change vs veh, GK / RFU, ZNF148 / Fold change vs veh, ZNF148 / RFU, TAF9 / Fold change vs veh, TAF9 / RFU, SLC1A5 / Fold change vs veh, SLC1A5 / RFU, SLMO2 / Fold change vs veh, SLMO2 / RFU, ABCC4 / Fold change vs veh, ABCC4 / RFU, LOC101060439 /// RAP1B / Fold change vs veh, LOC101060439 /// RAP1B / RFU, RFX7 / Fold change vs veh, RFX7 / RFU, GTPBP10 / Fold change vs veh, GTPBP10 / RFU, CNEP1R1 / Fold change vs veh, CNEP1R1 / RFU, BIVM-ERCC5 /// ERCC5 / Fold change vs veh, BIVM-ERCC5 /// ERCC5 / RFU, ILF3 / Fold change vs veh, ILF3 / RFU 11762660_at / Fold change /veh 11762660_at / RFU VCAN (11757783_s_at) / Fold change /veh VCAN (11757783_s_at) / RFU DDX43 (11728927_at) / Fold change /veh DDX43 (11728927_at) / RFU KRT8 (11758188_x_at) / Fold change /veh KRT8 (11758188_x_at) / RFU NKD1 (11759106_at) / Fold change /veh NKD1 (11759106_at) / RFU SRD5A1 (11742802_a_at) / Fold change /veh SRD5A1 (11742802_a_at) / RFU TPSAB1 /// TPSB2 (11721975_s_at) / Fold change /veh TPSAB1 /// TPSB2 (11721975_s_at) / RFU GSTM3 (11746129_a_at) / Fold change /veh GSTM3 (11746129_a_at) / RFU IL23R (11737362_x_at) / Fold change /veh IL23R (11737362_x_at) / RFU TMEM51 (11727254_a_at) / Fold change /veh TMEM51 (11727254_a_at) / RFU PIWIL2 (11732686_x_at) / Fold change /veh PIWIL2 (11732686_x_at) / RFU ORM1 (11744905_x_at) / Fold change /veh ORM1 (11744905_x_at) / RFU CCDC152 (11743942_at) / Fold change /veh CCDC152 (11743942_at) / RFU ECM1 (11717891_a_at) / Fold change /veh ECM1 (11717891_a_at) / RFU IL23R (11748794_a_at) / Fold change /veh IL23R (11748794_a_at) / RFU TNFAIP8L3 (11732012_x_at) / Fold change /veh TNFAIP8L3 (11732012_x_at) / RFU MBOAT4 (11741988_at) / Fold change /veh MBOAT4 (11741988_at) / RFU 11764193_at / Fold change /veh 11764193_at / RFU TMEM53 (11763286_at) / Fold change /veh TMEM53 (11763286_at) / RFU MAGEB2 (11727129_at) / Fold change /veh MAGEB2 (11727129_at) / RFU TMEM200A (11744735_a_at) / Fold change /veh TMEM200A (11744735_a_at) / RFU CCDC152 (11751479_a_at) / Fold change /veh CCDC152 (11751479_a_at) / RFU FAM211A (11726209_a_at) / Fold change /veh FAM211A (11726209_a_at) / RFU RGS16 (11746705_a_at) / Fold change /veh RGS16 (11746705_a_at) / RFU VCAN (11755009_s_at) / Fold change /veh VCAN (11755009_s_at) / RFU RHOB (11743442_s_at) / Fold change /veh RHOB (11743442_s_at) / RFU RGS16 (11720943_a_at) / Fold change /veh RGS16 (11720943_a_at) / RFU RGS16 (11720944_at) / Fold change /veh RGS16 (11720944_at) / RFU, VPS4B / Fold change vs veh, VPS4B / RFU, CREB1 / Fold change vs veh, CREB1 / RFU, DNAJC13 / Fold change vs veh, DNAJC13 / RFU, GNAQ / Fold change vs veh, GNAQ / RFU, CDK5R1 / Fold change vs veh, CDK5R1 / RFU, ZRANB3 / Fold change vs veh, ZRANB3 / RFU, CUL4A / Fold change vs veh, CUL4A / RFU, CCNY / Fold change vs veh, CCNY / RFU, UFL1 / Fold change vs veh, UFL1 / RFU, COG3 / Fold change vs veh, COG3 / RFU, DIAPH2 / Fold change vs veh, DIAPH2 / RFU, SKA2 / Fold change vs veh, SKA2 / RFU, AFF3 / Fold change vs veh, AFF3 / RFU, LMF1 / Fold change vs veh, LMF1 / RFU, IPO11 / Fold change vs veh, IPO11 / RFU, DFFB / Fold change vs veh, DFFB / RFU, FOXP1 / Fold change vs veh, FOXP1 / RFU, CARD8 / Fold change vs veh, CARD8 / RFU, STRN3 / Fold change vs veh, STRN3 / RFU, ADK / Fold change vs veh, ADK / RFU, RASSF2 / Fold change vs veh, RASSF2 / RFU, WIPF1 / Fold change vs veh, WIPF1 / RFU, LARP1B / Fold change vs veh, LARP1B / RFU, RASA1 / Fold change vs veh, RASA1 / RFU, RB1 / Fold change vs veh, RB1 / RFU, PPFIA1 / Fold change vs veh, PPFIA1 / RFU, MAT2A / Fold change vs veh, MAT2A / RFU, CCT5 / Fold change vs veh, CCT5 / RFU, WDR92 / Fold change vs veh, WDR92 / RFU, CUX1 / Fold change vs veh, CUX1 / RFU, TTC7A / Fold change vs veh, TTC7A / RFU, TMEM135 / Fold change vs veh, TMEM135 / RFU, DEPTOR / Fold change vs veh, DEPTOR / RFU, CPM / Fold change vs veh, CPM / RFU, DNAJB6 / Fold change vs veh, DNAJB6 / RFU, CACNA2D3 / Fold change vs veh, CACNA2D3 / RFU, DTX4 / Fold change vs veh, DTX4 / RFU, TFCP2 / Fold change vs veh, TFCP2 / RFU, GMCL1 /// GMCL1P1 / Fold change vs veh, GMCL1 /// GMCL1P1 / RFU, AEBP2 / Fold change vs veh, AEBP2 / RFU, SNHG1 /// SNORD22 /// SNORD25 /// SNORD26 /// SNORD27 /// SNORD28 /// SNORD29 /// SNORD31 / Fold change vs veh, SNHG1 /// SNORD22 /// SNORD25 /// SNORD26 /// SNORD27 /// SNORD28 /// SNORD29 /// SNORD31 / Fold change (Aza/veh), C12orf56 (ProbeSet 11735607_a_at) / Fold change (ACY-1035/veh), C12orf56 (ProbeSet 11735607_a_at) / Fold change (Aza/veh), FGFR1OP (ProbeSet 11751329_s_at) / Fold change (ACY-1035/veh), FGFR1OP (ProbeSet 11751329_s_at) / Fold change (Aza/veh), VPS36 (ProbeSet 11739960_a_at) / Fold change (ACY-1035/veh), VPS36 (ProbeSet 11739960_a_at) / RFU SYPL1 (11715823_x_at) / Fold change /veh SYPL1 (11715823_x_at) / RFU IGFBP7 (11715501_s_at) / Fold change /veh IGFBP7 (11715501_s_at) / RFU REEP3 (11722064_at) / Fold change /veh REEP3 (11722064_at) / RFU IGLL1 (11728026_x_at) / Fold change /veh IGLL1 (11728026_x_at): dose or concentration left out as unconfirmed
Conditions: ProbeSet 11753234_a_at; LIST B

## Nc1ccc(-c2cccs2)cc1NC(=O)c1ccc2c(c1)cc(C1CC1)n2CCN1CCOCC1 [ACY-1035]
  Fold change vs veh, TAMM41: 0.90
